Experimental findings from patent publication US20230391881A1, “COMPOSITIONS AND METHODS FOR OVERCOMING DR5-INDUCED IMMUNE EVASION BY SOLID TUMORS” (University of Virginia Patent Foundation, priority 2020, published 2023) are described below.

Common to all, as to format: in vivo, mouse
In assay [1] the test system is chi-G4S-DR5 stable MC38 tumors. The assay is described as follows: Immunoblotting of Chi-G4S-DR5 stable MC38 tumor lysates (granzyme-b). The note with it: size matched tumors, 6 total doses (FIG. 18A). (In general: Immunoblotting shows a protein as a band on a membrane.)
Assay [2] concerns chi-G4S-DR5 stable 4T1 tumors. The assay is described as follows: Immunoblotting of Chi-G4S-DR5 stable 4T1 tumor lysates (granzyme-b, Foxp3). To be noted: size matched tumors, 6 total doses (FIG. 6D).
A further assay relates to 4T1 tumors. The assay is described as follows: Tumor regression in 4T1 syngeneic TNBC tumor models. The note with it: antibodies i.p., similar dose (FIGS. 6I and 6J). The procedure: FIGS. 4A-4K. DR5 agonist activated ROCK1 functions to help PD-L1 surface mobilization. (FIGS. 4A and 4B) KMTR2 and lexatumumab treated MDA-MB-436 and OVCAR3 (respectively) lysates for indicated early time points were analyzed for caspase-8, caspase-3, ROCK1, pMLC, PARP, PD-L1 and CMTM6 etc. as indicated. Vertical arrows indicate sequential kinetics of caspase-8, ROCK1, and caspase-3 activation, arrows with “n.s.” below them indicate nonspecific band by ROCK1 antibody. (FIG. 4C) OVCAR3 cells were treated with pMLC activating ionophore A23187 (positive control) and lexatumumab ±ROCK1 inhibitors or ±rDR5 or ±rFOLR1. Lysates were later analyzed for ROCK1, pMLC, caspase-3 and PARP with GAPDH as loading control. (FIG. 4D) MDA-MB-436 and OVCAR3 cells were treated with indicated ROCK1 inhibitors 2 hours prior to DR5 agonist KMTR2 treatment. After 4 hours flow cytometry was used to analyze surface PD-L1. […] Relative luciferase signal was quantified and plotted after subtraction of background signal from untreated cells. […] Tumor volumes were quantified at indicated days by caliper measurements. […] Statistical significance in FIG. 4J was determined by unpaired student t-test and in FIG. 4K using two-tailed […] Wilcoxon Mann-Whitney test. […]
FIGS. 6A-6M. […] CD8/CD45 and CD4/CD45 expressing cells were measured by flow cytometry. […] Harvested tumors homogenized followed by quantitation. […]

“avelumab: clinical anti-PD-L1 antibody (human/mouse cross-reactive); VL and VH SEQ ID NOs: 9 and 10”: the “granzyme-b activity in tumors compared to DR5 agonist alone” value in assay [1] and in assay [2] was “significantly higher granzyme-b activity” throughout. For the same substance, the tumor regression entry in the assay with 4T1 tumors is “only stabilized the tumors”.
